Our source for the TGI values is PubChem BioAssay (NCI).

Some test systems named below: DU-145 prostate; UACC-62 melanoma; SR leukemia; NCI-H23 lung; HOP-62 NSCLC; A498 renal; OVCAR-4 ovarian; PC-3 prostate; M14 melanoma; RXF 393 renal; LOX IMVI melanoma; ACHN renal; CCRF-CEM leukemia; SF-295 CNS; 786-0 renal.
Common to all, as to experiment: NCI-60 cell line screen, 48 h

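Tested at 5 concentrations; 48 h exposure; 96-well plates; endpoints linearly interpolated, else capped at highest concentration. TGI denotes the concentration required for complete inhibition of growth.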

With `O=C1N(c2ccccc2)C(=S)/C(=C/c2ccc(Cl)cc2)N1c1ccc(Cl)cc1`, the TGI in the experiment with DU-145 prostate is greater than 100 µM; in the experiment on UACC-62 melanoma it was 53.3 µM; in the experiment on SR leukemia it was 15.5 µM; in the experiment on NCI-H23 lung it was greater than 100 µM; in the experiment on HOP-62 NSCLC, greater than 100 µM; in the experiment on A498 renal, greater than 100 µM. Also, the TGI with OVCAR-4 ovarian was greater than 100 µM; in the experiment on PC-3 prostate, greater than 100 µM; in the experiment on M14 melanoma it was greater than 100 µM; with RXF 393 renal, greater than 100 µM; in the experiment on LOX IMVI melanoma, 76.5 µM; in the experiment with ACHN renal, 49.1 µM. The TGI in the experiment on CCRF-CEM leukemia was 61.1 µM; in the experiment with SF-295 CNS, greater than 100 µM; in the experiment with 786-0 renal it was 64.2 µM.
